# Assays:
# mTORC2 = molecular target: T1, mTORC2 (Homo sapiens, UniProt P42345); experiment: mTORC2 inhibition, immunoblot of AKT Ser473 phosphorylation in HeLa cells; format: cell-based; settings: at 40 µM, FIG. 2A
# T1 construct: endogenous in cells; host or cells: HeLa
# Experimental: HeLa cells were cultured in DMEM (Dulbesco's Modified Eagles Media) containing 10% FBS, penicillin (100 units/ml), and streptomycin (100 μg/ml) at 37° C. in a 5% CO2 incubator. Culture was started by seeding 4×10^5 cells in a 100 mm culture dish, and subcultured every 3 days.
# Immunoblot analysis was performed by the following method. SDS-PAGE-developed proteins were electroblotted and transferred and a PVDF membrane was blocked by shaking for 1 hour in a TBS-T buffer (20 mM Tris, 137 mM NaCl, 0.1% Tween 20) containing 5% skim milk. The membrane was repeatedly washed with a TBS-T buffer three times for 5 minutes, and reacted with a first antibody diluted in a TBS-T buffer containing 5% skim milk or 5% BSA overnight at 4° C. Thereafter, the membrane was repeatedly washed with a TBS-T buffer three times for 5 minutes, and reacted with a second antibody diluted in a TBS-T buffer containing 5% skim milk for 30 minutes at room temperature. The membrane was repeatedly washed with a TBS-T buffer containing 5% skim milk five times for 5 minutes, and then protein bands bound to the second antibody were detected by a chemiluminescence method. […]
# 5xFAD transgenic mice = experiment: NFT removal, AT8/MAP2 staining of brain slices; format: in vivo
# Experimental: 5xFAD animals were administered with HN-1703 at three doses for 14 days to male heterozygotes aged 6 months (all born within 3 days). The behaviors of mice were measured in a dark cycle in which the mice were active while alternating light and dark in a 12-hour cycle in a breeding room chamber, and the mice were freely accessible to food and water and bred in compliance with experimental animal ethical guidelines of Kyung Hee University. In each group, the HN-1703 was intraperitoneally injected at the same time once a day in a volume of 100 μl to 12 mice in a normal group (wild type littermate), 9 5xFAD mice in a vehicle (DMSO administration), 8 5xFAD mice in a 5 mg/kg administered group, 9 5xFAD mice in a 10 mg/kg administered group, and 9 5xFAD mice in a 20 mg/kg administered group. […] In a behavioral measurement room, humidity (40 to 60%) and temperature (22 to 26° C.) were maintained, and reflected light was maintained to avoid sound and light effects. Behavioral measures were measured in Y-maze, Morris Water Maze, and Passive Avoidance test for 18 days in sequence.
# A brain slice immunostaining method was modified and used as described in Heo H et al. (J Ethnopharmacol, 2009). Mice were transcardially perfused with 4% PFA. After being immersed and fixed in 4% PFA for 4 hours, the brain tissue was unfrozen in 30% sucrose, frozen in an optimal cutting temperature (OCT) mixture, and stored at −80° C. Brain tissue slices were sectioned in a coronal direction at a thickness of 35 μm. The brain tissue slices were immersed in a storage solution (30% glycerol, 30% ethylene glycol, PBS) and stored at 4° C. The stored brain slices were permeabilized in 0.5% Triton X-100 for 20 minutes and shaken in 2 N HCl for 30 minutes at 37° C. Then, the brain slices were blocked in a free-floating state for 2 hours in 15% standard serum, 3% bovine serum albumin (BSA, bio-WORLD, Dublin, OH, USA) and 0.1% Triton X-100. The slices were shaken with a first antibody for 16 hours at 4° C. […]
smiles,measurement,setting,value
"COc1cc(OC)c2c(=O)c3cc4c(cc3oc2c1)OCO4 [HN-1703, 7,9-dimethoxy-10H-[1,3]dioxolo[4,5-b]xanthen-10-one]",inhibition of mTORC2 activity (AKT Ser473 phosphorylation) compared to the control group,mTORC2,55%
same,decrease of NFTs compared to the 5xFAD-DMSO group,"5xFAD transgenic mice; 20 mg/kg, dentate gyrus, FIG. 9",≥ 70%
same,NFT (AT8 staining),"5xFAD transgenic mice; 5 to 20 mg/kg, all three brain regions examined, FIG. 9",decreased in a dose-dependent manner
same,number of neurons stained with NFT (AT8+/MAP2+),"5xFAD transgenic mice; dentate gyrus, FIG. 10",decreased in a dose-dependent manner

# Reference: patent US12605358B2, “Composition for preventing or treating nervous system diseases comprising compound that inhibits mTOR signaling pathway as active ingredient” (ALIAD BIOPHARMA, priority 2021, dated 2026)
